Source: US11787769B2 (priority 2019, dated 2023)
Where two headings read alike, the source gives them in different places.

Key:
[1] = system: PR8-PB2-Gluc, influenza A/Puerto Rico/8/1934 (PR8) H1N1 virus; assay: microbe, parasite or virus in culture; format: cell-based; details: Influenza A virus, MDCK, read-out: EC50 (nM), antiviral activity in the infectious IAV
PR8-NS1-Gluc virus = assay: microbe, parasite or virus in culture; format: cell-based, influenza A PR8
CYP2C9 = CYP2C9 (Homo sapiens, UniProt P11712); assay: biochemical
[2] = Hepatic metabolic stability in human liver microsomes; details: human LM, in the presence of NADPH
CYP3A4 = CYP3A4 (Homo sapiens, UniProt P08684); assay: biochemical
[3] = system: influenza A virus (HA of H5N1, Goose/Qinghai/59/05); assay: microbe, parasite or virus in culture; format: cell-based; details: Influenza A virus
[4] = Pharmacokinetic analysis of plasma and liver levels in BALB/c mice
[5] = Hepatic metabolic stability in mouse liver microsomes; details: mouse LM, in the presence of NADPH
[6] = Influenza A virus, PR8, MDCK, 48 h

CYP2C9, sequence (P11712 whole entry): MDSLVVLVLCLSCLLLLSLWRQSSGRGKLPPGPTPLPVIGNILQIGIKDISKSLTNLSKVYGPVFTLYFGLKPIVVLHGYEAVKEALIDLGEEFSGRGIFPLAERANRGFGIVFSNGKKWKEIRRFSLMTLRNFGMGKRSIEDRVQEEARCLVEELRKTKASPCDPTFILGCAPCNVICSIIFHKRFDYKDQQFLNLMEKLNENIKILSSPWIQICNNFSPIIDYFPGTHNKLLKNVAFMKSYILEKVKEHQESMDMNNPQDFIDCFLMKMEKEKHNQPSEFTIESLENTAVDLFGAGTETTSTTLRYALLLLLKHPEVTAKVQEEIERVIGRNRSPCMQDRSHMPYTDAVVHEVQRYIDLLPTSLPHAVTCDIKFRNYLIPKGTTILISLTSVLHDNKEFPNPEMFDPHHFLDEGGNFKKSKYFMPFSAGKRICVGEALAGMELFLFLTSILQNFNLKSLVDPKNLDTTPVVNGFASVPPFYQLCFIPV
CYP3A4, sequence (P08684 whole entry): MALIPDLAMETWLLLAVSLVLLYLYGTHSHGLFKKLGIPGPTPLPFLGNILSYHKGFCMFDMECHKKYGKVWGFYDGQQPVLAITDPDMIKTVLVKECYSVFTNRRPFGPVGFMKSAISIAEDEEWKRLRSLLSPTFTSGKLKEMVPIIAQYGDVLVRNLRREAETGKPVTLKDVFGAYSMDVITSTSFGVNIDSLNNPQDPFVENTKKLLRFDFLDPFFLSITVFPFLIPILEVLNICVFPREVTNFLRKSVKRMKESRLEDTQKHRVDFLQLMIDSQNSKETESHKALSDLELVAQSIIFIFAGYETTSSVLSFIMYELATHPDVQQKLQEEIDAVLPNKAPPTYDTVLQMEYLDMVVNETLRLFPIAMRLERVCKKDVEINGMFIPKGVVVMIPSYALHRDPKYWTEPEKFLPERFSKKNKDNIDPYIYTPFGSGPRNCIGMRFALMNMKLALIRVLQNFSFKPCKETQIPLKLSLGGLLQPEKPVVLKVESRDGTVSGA

## CC(C)(C)N1CCC(NC(=O)c2ccc(C(F)(F)F)cc2Cl)CC1 [Compound 16, N-(1-(tert-Butyl)piperidin-4-yl)-2-chloro-4-(trifluoromethyl)benzamide]
[1]
  EC50: 72 nM
PR8-NS1-Gluc virus
  EC30: 134 nM
  EC40: 160 nM
  EC60: 219 nM
  EC70: 260 nM
  EC80: 321 nM
PR8-NS1-Gluc virus; [6]
  EC50: 187 nM
  EC90: 439 nM
CYP2C9
  IC50: > 100 µM
[2]
  percentage of compound remaining after 60 minutes: 97%
CYP3A4
  IC50: > 100 µM
[3]; H5N1, A549, 12.5 μM, read-out: H5N1 pseudotype assay % inhibition at 12.5 μM
  inhibition at 12.5 µM: 99%
[3]; H5N1, A549, read-out: H5N1 pseudotype assay EC50 (μM)
  EC50: 0.24 ± 0.09 µM
[4]; 5x the dose p.o. (50 mg/kg), plasma
  Cmax: 7641 ng/mL
[4]; 5x the dose p.o. vs 10 mg/kg i.p., plasma
  Cmax p.o. relative to i.p. (fold higher): 7 ×
[4]; BALB/c mice, p.o. vs i.p. Cmax
  oral bioavailability: excellent oral bioavailability
[4]; BALB/c, mouse, plasma, intraperitoneal, oral
  Tmax: 30 min
[4]; i.p. (10 mg/kg), liver
  AUC(0-8 h): 66400 ng·h/g
  T1/2: 2.47 h
  Tmax: 15 min
[4]; i.p. (10 mg/kg), plasma
  AUC(0-8 h): 3282 ng·h/g
  T1/2: 1.53 h
  Tmax: 30 min
[4]; p.o. (50 mg/kg), liver
  AUC(0-8 h): 292000 ng·h/g
  T1/2: 2.58 h
  Tmax: 60 min
[4]; p.o. (50 mg/kg), plasma
  AUC(0-8 h): 23705 ng·h/g
  T1/2: 2.16 h
  Tmax: 30 min
[4]; read-out: Cmax level in the plasma, 10 mg/kg i.p.
  Cmax: 3.12 µM
[5]
  percentage of compound remaining after 60 minutes: 94%
